In PMC12174726 (Chemmedchem, 2025):
“Also recorded” adds a separate entry of the source. Like-named read-outs stand apart in the source and are kept apart here. One block for each molecule: values may come before it. Residues, ends and D or L forms follow the SMILES beside them. *: point of attachment. Cbz = O=C(OCc1ccccc1)*

What was measured:
H3K27 acetylation = experiment: Western blot of H3K27ac levels in SU‐DHL‐10 cells; type: cell-based; conditions: 24 h
SU‐DHL‐2 = experiment: MTT proliferation assay, SU‐DHL‐2; type: cell-based; conditions: Homo sapiens, SU‐DHL‐2, 72 h treatment, n = 2, read-out: IC50 (cell proliferation)
Method: (§1) Lymphoma cell lines were exposed to a large range of concentrations of each compound as single agent for 24 h or 72 h, followed by MTT and after 4 h SDS to stop the reaction. The day after, plates were read using a Cytation 3 plate reader (Biotek) and IC50s were calculated. DMSO was used as a control (untreated). IC50 is defined as the drug concentration giving 50% of proliferating cells compared to vehicle treated cells. IC50 was calculated by fitting the values via nonlinear regression (GraphPad Prism 8.0). Values represent mean ± S.D.

[1] = test system: SU‐DHL‐2, SU‐DHL‐16, TMD8, and WSU‐DLCL2; experiment: MTT proliferation assay, additional DLBCL cell lines (summary); type: cell-based; conditions: 72 h, range over DLBCL cell lines and both compounds, read-out: viability IC50, range over cell lines
Method: as §1

SU‐DHL‐16 = experiment: MTT proliferation assay, SU‐DHL‐16; type: cell-based; conditions: Homo sapiens, SU‐DHL‐16, 72 h treatment, n = 2, read-out: IC50 (cell proliferation)
Method: as §1

TMD8 = experiment: MTT proliferation assay, TMD8; type: cell-based; conditions: Homo sapiens, TMD8, 72 h treatment, n = 2, read-out: IC50 (cell proliferation)
Method: as §1

p300 [2] = biological target: T1, p300 (Homo sapiens, UniProt Q09472); experiment: p300 catalytic activity inhibition; type: biochemical; conditions: means ± S.D., n = 3
T1 sequence (Q09472 whole entry): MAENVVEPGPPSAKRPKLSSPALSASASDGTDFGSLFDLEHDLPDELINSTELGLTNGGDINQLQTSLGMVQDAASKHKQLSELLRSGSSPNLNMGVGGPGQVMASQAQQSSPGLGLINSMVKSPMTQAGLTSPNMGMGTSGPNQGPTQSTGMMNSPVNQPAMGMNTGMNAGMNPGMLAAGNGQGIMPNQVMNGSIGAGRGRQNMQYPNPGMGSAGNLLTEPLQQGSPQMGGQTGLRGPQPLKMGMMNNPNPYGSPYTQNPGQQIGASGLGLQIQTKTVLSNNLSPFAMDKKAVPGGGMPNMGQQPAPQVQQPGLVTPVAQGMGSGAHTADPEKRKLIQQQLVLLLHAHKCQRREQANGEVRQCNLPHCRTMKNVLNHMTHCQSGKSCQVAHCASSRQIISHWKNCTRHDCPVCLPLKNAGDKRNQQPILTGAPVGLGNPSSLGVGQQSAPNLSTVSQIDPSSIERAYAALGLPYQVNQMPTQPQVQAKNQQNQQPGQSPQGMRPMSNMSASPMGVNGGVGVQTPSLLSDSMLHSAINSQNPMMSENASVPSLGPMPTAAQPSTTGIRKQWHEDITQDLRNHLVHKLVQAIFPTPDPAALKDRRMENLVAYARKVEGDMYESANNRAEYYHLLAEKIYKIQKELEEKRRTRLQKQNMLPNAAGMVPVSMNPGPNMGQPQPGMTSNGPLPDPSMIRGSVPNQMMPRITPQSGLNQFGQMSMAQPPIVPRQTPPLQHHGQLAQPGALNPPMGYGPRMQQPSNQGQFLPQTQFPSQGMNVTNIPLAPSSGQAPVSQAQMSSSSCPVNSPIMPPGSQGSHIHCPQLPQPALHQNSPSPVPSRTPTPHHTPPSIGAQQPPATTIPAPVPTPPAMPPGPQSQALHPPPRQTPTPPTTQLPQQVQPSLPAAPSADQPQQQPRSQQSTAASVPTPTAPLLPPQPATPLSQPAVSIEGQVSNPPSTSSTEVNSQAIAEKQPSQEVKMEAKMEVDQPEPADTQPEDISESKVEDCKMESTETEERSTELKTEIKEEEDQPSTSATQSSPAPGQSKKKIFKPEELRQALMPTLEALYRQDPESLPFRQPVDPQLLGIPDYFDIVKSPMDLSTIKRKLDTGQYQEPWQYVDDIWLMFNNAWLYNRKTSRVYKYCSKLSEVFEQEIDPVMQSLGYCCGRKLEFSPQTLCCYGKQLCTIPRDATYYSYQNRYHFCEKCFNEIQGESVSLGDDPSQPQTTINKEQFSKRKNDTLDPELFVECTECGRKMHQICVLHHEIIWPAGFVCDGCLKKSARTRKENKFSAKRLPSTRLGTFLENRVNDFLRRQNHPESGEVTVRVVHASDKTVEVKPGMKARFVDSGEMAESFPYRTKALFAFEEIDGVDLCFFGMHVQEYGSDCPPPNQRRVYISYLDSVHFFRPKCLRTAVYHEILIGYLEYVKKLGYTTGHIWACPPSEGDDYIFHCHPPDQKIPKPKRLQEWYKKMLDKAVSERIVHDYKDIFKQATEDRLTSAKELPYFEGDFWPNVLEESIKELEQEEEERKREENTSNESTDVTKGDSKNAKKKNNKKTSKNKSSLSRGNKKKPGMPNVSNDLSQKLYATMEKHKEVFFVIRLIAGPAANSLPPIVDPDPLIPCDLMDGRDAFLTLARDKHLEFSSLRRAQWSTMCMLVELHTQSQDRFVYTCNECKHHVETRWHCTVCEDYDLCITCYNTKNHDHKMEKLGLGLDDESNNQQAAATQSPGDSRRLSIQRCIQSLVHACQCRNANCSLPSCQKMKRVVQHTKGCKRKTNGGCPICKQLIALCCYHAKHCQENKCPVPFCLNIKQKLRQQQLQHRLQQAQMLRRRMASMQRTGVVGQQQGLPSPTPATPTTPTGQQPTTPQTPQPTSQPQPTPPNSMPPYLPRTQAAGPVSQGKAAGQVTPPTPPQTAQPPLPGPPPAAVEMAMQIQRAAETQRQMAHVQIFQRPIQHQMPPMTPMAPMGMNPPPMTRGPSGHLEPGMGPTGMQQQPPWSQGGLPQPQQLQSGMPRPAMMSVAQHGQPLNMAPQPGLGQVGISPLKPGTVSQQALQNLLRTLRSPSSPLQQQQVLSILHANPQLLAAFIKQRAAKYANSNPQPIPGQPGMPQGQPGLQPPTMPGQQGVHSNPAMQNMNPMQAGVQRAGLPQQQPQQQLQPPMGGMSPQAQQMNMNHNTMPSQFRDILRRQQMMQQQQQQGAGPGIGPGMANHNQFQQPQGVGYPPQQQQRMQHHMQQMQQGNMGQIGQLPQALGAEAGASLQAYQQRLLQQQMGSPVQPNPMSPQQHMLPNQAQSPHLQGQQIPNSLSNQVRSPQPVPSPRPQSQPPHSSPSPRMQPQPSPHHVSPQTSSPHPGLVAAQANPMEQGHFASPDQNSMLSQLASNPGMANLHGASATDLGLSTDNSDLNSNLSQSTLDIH
Text: (§2) To answer this question, we initially characterized them both for their inhibition of CBP and p300 catalytic activities.

p300 [3] = biological target: T1, p300; experiment: Western blot of p300 levels in SU‐DHL‐10 cells; type: cell-based; design: WB analysis of p300 levels in the SU‐DHL‐10 cell line; endogenous in cells; host or cells: SU-DHL-10; conditions: for p300 protein levels (WB): SU‐DHL‐10, increasing concentrations
Method: (§3) Following compound treatment for the indicated time frame (4 to 24 h), cells were solubilized, and the protein content was determined using the BCA protein assay (Pierce Chemical Co). Lysates were fractionated by SDS–polyacrylamide gel electrophoresis (SDS‐PAGE). Membranes were incubated with anti‐CBP (CBP (D6C5) Rabbit mAb #7389, Cell Signaling Technology), anti‐p300 (Anti‐KAT3B/p300 antibody (3G230), Abcam) or anti‐GAPDH (GAPDH Monoclonal Antibody (FF26A), Thermo Fisher Scientific) antibodies overnight. This was followed by incubation with the appropriate horseradish peroxidase‐conjugated anti‐mouse or anti‐rabbit secondary antibodies (Cytiva Europe) for 1 h. Enhanced chemiluminescence detection was then done following the manufacturer's instructions. GAPDH was used as a loading control. Images were quantified with the internal software of the Fusion Solo S (Vilber).

WSU‐DLCL2 = experiment: MTT proliferation assay, WSU‐DLCL2; type: cell-based; conditions: Homo sapiens, WSUDLCL2, WSU‐DLCL2, 72 h treatment, n = 2, read-out: IC50 (cell proliferation)
Method: as §1

SU‐DHL‐10 cells = experiment: MTT proliferation assay, SU‐DHL‐10; type: cell-based; conditions: for IC50: Homo sapiens, n = 2, read-out: IC50 (cell proliferation)
Method: as §1

CBP [4] = biological target: T2, CBP (Homo sapiens, UniProt Q92793); experiment: Western blot of CBP levels in SU‐DHL‐10 cells; type: cell-based; design: WB analysis of CBP levels in the DLBCL SU‐DHL‐10 cell line; endogenous in cells; host or cells: SU-DHL-10
T2 sequence (Q92793 whole entry): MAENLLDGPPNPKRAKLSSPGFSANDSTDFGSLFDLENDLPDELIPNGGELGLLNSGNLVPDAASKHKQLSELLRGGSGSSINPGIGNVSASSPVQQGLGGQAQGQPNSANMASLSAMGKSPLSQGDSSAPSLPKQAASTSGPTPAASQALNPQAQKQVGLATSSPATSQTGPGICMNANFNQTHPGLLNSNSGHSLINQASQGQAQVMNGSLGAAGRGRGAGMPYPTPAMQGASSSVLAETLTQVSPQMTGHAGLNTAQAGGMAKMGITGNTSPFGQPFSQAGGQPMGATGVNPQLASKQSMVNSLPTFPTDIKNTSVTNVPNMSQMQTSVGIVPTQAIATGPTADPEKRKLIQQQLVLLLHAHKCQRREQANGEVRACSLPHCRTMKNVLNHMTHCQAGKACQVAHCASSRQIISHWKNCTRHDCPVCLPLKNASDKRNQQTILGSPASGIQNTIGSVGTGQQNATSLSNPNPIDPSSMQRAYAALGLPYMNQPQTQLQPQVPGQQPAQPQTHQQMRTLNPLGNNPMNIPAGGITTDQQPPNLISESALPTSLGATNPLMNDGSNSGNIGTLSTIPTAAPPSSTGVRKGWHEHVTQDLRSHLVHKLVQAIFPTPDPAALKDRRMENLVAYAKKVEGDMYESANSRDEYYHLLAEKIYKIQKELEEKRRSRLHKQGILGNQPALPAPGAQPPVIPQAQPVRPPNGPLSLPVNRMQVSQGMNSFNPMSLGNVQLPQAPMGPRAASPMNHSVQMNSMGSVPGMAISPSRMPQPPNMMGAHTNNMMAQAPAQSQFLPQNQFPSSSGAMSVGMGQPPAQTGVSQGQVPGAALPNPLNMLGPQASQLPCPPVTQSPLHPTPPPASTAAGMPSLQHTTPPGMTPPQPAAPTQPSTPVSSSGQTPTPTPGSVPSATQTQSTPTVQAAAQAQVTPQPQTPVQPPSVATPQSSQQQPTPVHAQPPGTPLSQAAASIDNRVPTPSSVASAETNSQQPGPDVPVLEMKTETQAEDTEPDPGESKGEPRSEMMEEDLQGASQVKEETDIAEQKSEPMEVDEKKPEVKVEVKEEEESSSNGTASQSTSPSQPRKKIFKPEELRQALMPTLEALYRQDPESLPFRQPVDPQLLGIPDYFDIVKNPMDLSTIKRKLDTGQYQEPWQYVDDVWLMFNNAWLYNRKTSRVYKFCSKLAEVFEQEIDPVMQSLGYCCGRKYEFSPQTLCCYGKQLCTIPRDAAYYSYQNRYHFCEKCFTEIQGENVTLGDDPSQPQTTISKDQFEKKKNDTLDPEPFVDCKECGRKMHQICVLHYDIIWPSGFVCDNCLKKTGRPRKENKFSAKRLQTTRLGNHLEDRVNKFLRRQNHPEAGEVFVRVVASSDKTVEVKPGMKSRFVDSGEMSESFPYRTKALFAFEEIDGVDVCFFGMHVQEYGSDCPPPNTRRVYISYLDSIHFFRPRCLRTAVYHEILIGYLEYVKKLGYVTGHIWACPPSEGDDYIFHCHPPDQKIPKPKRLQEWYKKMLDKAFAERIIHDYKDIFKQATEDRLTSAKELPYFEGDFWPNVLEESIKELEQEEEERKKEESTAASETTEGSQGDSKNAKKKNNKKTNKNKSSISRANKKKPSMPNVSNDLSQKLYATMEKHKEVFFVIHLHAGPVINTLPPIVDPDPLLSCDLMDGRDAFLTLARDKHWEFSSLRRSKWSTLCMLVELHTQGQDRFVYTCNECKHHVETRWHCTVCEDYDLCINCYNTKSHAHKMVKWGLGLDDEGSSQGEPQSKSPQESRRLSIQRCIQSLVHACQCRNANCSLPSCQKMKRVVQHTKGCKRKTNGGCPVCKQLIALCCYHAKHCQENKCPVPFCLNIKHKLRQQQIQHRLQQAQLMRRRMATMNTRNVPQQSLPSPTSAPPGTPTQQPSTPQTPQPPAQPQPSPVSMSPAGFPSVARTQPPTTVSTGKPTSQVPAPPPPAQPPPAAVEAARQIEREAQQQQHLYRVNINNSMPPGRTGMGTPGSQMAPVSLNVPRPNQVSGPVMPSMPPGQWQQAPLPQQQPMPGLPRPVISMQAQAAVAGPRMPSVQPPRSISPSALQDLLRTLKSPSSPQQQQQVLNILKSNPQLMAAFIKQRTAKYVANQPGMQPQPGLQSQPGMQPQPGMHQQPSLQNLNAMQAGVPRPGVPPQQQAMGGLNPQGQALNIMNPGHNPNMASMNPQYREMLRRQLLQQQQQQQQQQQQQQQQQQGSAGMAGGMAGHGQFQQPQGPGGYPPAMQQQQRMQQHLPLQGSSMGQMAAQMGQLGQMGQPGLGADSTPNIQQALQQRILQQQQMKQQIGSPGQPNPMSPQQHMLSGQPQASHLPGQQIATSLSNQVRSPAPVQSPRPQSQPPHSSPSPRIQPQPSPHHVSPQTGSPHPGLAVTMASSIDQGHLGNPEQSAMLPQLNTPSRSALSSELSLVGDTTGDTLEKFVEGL
Method: as §3

CBP [5] = biological target: T2, CBP; experiment: CBP catalytic activity inhibition; type: biochemical; conditions: means ± S.D., n = 3
Text: as §2

neuroblastoma cell = test system: neuroblastoma cell; design: method as in PMID 34772733; conditions: cited from earlier work
[6] = test system: histone deacetylases (HDACs); design: method as in PMID 26718586; conditions: cited from earlier work
[7] = SU-DHL10, SU‐DHL‐10, 24 h treatment
[8] = SU-DHL10, SU‐DHL‐10, 72 h treatment

Molecule: CNC(=O)Nc1ccc2c(c1)CC[C@@]21OC(=O)N(CC(=O)N(Cc2ccc(F)cc2)[C@@H](C)C(F)(F)F)C1=O [Compound A485, A‐485]
H3K27 acetylation (H3K27 acetylation; SU‐DHL‐10, 5 and 10 μM): reduced H3K27 acetylation in a dose‐dependent fashion

IC50 (p300 [2]): 600 to 900 nM
p300 levels (WB) (p300 [3]; SU‐DHL‐10, 2.5 μM, 8 h): decreased protein levels
p300 levels (WB) (p300 [3]; SU‐DHL‐10, 2.5 μM, 24 h): no difference was observed
p300 levels (WB) (p300 [3]; SU‐DHL‐10, 10 μM, 24 h): significantly reduced p300 levels
p300 protein levels (WB) (p300 [3]; 24 h): dose‐dependent reduction
CBP levels (WB) (CBP [4]; SU‐DHL‐10, 2.5 μM, 24 h): returned to the initial levels
decrease of protein (CBP) levels (CBP [4]; SU‐DHL‐10, 10 μM, 24 h): roughly 70%
CBP levels (WB), combination with C646 (CBP [4]; SU‐DHL‐10, 1 2.5 μM + C646 10 μM, 8 h): did not affect CBP levels
CBP degradation (WB), co‐incubation with MG132 (CBP [4]; SU‐DHL‐10, 1 2.5 μM + MG132 10 μM, 8 h): abolishes 1‐induced CBP degradation
IC50 (CBP [5]): 600 to 900 nM
Molecule: CC1=NN(c2ccc(C(=O)NCCCOCCOCCOCCCNC(=O)COc3cccc4c3C(=O)N(C3CCC(=O)NC3=O)C4=O)cc2)C(=O)/C1=C\c1ccc(-c2cc(C)c(C)cc2[N+](=O)[O-])o1 (centres unmarked) [Compound 1, (Z)‐4‐(4‐((5‐(4,5‐dimethyl‐2‐nitrophenyl)furan‐2‐yl)methylene)‐3‐methyl‐5‐oxo‐4,5‐dihydro‐1 H‐pyrazol‐1‐yl)‐N‐(1‐((2‐(2,6‐dioxopiperidin‐3‐yl)‐1,3‐dioxoisoindolin‐4‐yl)oxy)‐2‐oxo‐7,10,13‐trioxa‐3‐azahexadecan‐16‐yl)benzamide]
IC50 (SU‐DHL‐2): 2050 ± 68 nM
IC50 [1]: 2000 to 8000 nM
IC50 (SU‐DHL‐16): 2990 ± 190 nM
IC50 (TMD8): 1950 ± 69 nM
H3K27 acetylation (H3K27 acetylation; SU‐DHL‐10, 5 μM): decreased H3K27 acetylation
IC50 (WSU‐DLCL2): 3240 ± 280 nM
IC50 (SU‐DHL‐10 cells; [7]): 3440 ± 120 nM
IC50 (SU‐DHL‐10 cells; [8]): 2730 ± 72 nM
CBP levels (WB) (CBP [4]; SU‐DHL‐10, 2.5 μM, 8 h): reduced the levels of CBP; also recorded: decreased the levels of CBP
CBP protein levels (WB) (CBP [4]; SU‐DHL‐10, increasing concentrations, 24 h): dose‐dependent reduction; also recorded: slightly better efficacy on CBP compared to the previously reported PROTAC JQAD1

Molecule: CC(C)C[C@@H](C=O)NC(=O)[C@H](CC(C)C)NC(=O)[C@H](CC(C)C)NC(=O)OCc1ccccc1 [MG132, reference compound] (Cbz-Leu-Leu-Leu-aldehyde)
IC50 (SU‐DHL‐10 cells; [7]): 144 ± 2 nM

p300 protein levels (WB) (p300 [3]; 24 h): slightly higher potency
Molecule: JQAD1
IC50, neuroblastoma cell viability (neuroblastoma cell): nanomolar range
H3K27 acetylation (H3K27 acetylation; SU‐DHL‐10, 5 and 10 μM): reduced H3K27 acetylation in a dose‐dependent fashion

IC50 (p300 [2]): 600 to 900 nM
p300 levels (WB) (p300 [3]; SU‐DHL‐10, 2.5 μM, 8 h): decreased protein levels
p300 levels (WB) (p300 [3]; SU‐DHL‐10, 2.5 μM, 24 h): no difference was observed
p300 levels (WB) (p300 [3]; SU‐DHL‐10, 10 μM, 24 h): significantly reduced p300 levels
CBP levels (WB) (CBP [4]; SU‐DHL‐10, 2.5 μM, 8 h): slightly less active
CBP levels (WB) (CBP [4]; SU‐DHL‐10, 2.5 μM, 24 h): returned to the initial levels
decrease of protein (CBP) levels (CBP [4]; SU‐DHL‐10, 10 μM, 24 h): roughly 70%
IC50 (CBP [5]): 600 to 900 nM
Molecule: CC1=NN(c2ccc(C(=O)NCCOCCOCCNC(=O)COc3cccc4c3C(=O)N(C3CCC(=O)NC3=O)C4=O)cc2)C(=O)/C1=C\c1ccc(-c2cc(C)c(C)cc2[N+](=O)[O-])o1 (centres unmarked) [Compound 2, (Z)‐4‐(4‐((5‐(4,5‐dimethyl‐2‐nitrophenyl)furan‐2‐yl)methylene)‐3‐methyl‐5‐oxo‐4,5‐dihydro‐1 H‐pyrazol‐1‐yl)‐N‐(2‐(2‐(2‐(2‐((2‐(2,6‐dioxopiperidin‐3‐yl)‐1,3‐dioxoisoindolin‐4‐yl)oxy)acetamido)ethoxy)ethoxy)ethyl)benzamide]
IC50 (SU‐DHL‐2): 4960 ± 330 nM
IC50 [1]: 2000 to 8000 nM
IC50 (SU‐DHL‐16): 8020 ± 2460 nM
IC50 (TMD8): 7810 ± 3040 nM
IC50 (WSU‐DLCL2): 5230 ± 850 nM
IC50 (SU‐DHL‐10 cells; [7]): 6440 ± 810 nM
IC50 (SU‐DHL‐10 cells; [8]): 6340 ± 1760 nM

Molecule: O=C1CCC(N2C(=O)c3ccccc3C2=O)C(=O)N1 (centres unmarked) [Thalidomide, thalidomide, reference compound]
IC50 (SU‐DHL‐10 cells; [7]): > 20000 nM
effect on cell viability (SU‐DHL‐10 cells; SU‐DHL‐10, 24 h, up to 20 μM): no significant effects on cell viability

CBP levels (WB) (CBP [4]; SU‐DHL‐10, 10 μM, 8 h): no effect on CBP levels
IC50 (CBP [5]): 210 ± 10 nM
Molecule: CC1=NN(c2ccc(C(=O)O)cc2)C(=O)/C1=C\c1ccc(-c2cc(C)c(C)cc2[N+](=O)[O-])o1 [Compound C646, C646, reference compound]
inhibition of histone deacetylases (HDACs) [6]: inhibit histone deacetylases (HDACs) at low micromolar concentrations
H3K27 acetylation (H3K27 acetylation; SU‐DHL‐10, 5 and 10 μM): did not reduce acetylation
IC50 (SU‐DHL‐10 cells; [7]): 12200 ± 3020 nM
